# Target: Mpg (Neisseria gonorrhoeae, UniProt Q5F676)
# Test: fluorescence thermal shift (Sypro-Orange)
# Type: binding
# Details: read-out: dTm at 5 μM
# Chain of Mpg (Q5F676 31-430): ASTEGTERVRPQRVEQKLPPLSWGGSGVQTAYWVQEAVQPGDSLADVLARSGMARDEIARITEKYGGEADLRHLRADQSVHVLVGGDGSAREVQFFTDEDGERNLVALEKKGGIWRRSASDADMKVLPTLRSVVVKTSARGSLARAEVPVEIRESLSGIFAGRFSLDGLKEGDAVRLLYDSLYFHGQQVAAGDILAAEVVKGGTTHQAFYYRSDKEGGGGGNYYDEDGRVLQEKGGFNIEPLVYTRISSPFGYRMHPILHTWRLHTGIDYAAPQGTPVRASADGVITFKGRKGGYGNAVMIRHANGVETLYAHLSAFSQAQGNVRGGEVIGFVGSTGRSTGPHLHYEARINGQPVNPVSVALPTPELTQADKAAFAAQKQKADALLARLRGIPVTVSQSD
structure (smiles),measurement,value
O=C1O[C@H]2[C@@H]3OC(=O)c4cc(O)c(O)c(O)c4-c4c(O)c(O)c5oc(=O)c6c(c(O)c(O)c7oc(=O)c4c5c76)-c4c(cc(O)c(O)c4O)C(=O)OC[C@H]3OC(O)[C@@H]2OC(=O)c2cc(O)c(O)c(O)c2-c2c1cc(O)c(O)c2O (mixture of isomers) [punicalagin],ΔTm at 5 µM,-4.4 °C
O=C(O)C[C@@H]1C(=O)O[C@H]2[C@H](OC(=O)c3cc(O)c(O)c(O)c3)[C@@H](OC(=O)c3cc(O)c(O)c4c3[C@H]1[C@@H](O)C(=O)O4)[C@H](OC(=O)c1cc(O)c(O)c(O)c1)O[C@@H]2COC(=O)c1cc(O)c(O)c(O)c1 [chebulinic acid],ΔTm at 5 µM,-2.9 °C
